Experimental data published in patent US20090076067A1, “PHARMACEUTICAL COMPOSITION COMPRISING AZARHODACYANINE COMPOUND AS ACTIVE INGREDIENT” (priority 2005, published 2009).

What was measured:
[1] = system: Plasmodium berghei NK 65 strain; test: animal or person; format: in vivo; conditions: for Survival days (mean survival days, treatment group minus control group) / Recovery Rate (suppression): 4 days; for Recovery Rate (suppression): P. berghei infected ICR mice; for Acute toxicity in treated mice: 25 mg/kg/day dose
Description: For a test to evaluate therapeutic effect of the compound, 4-day suppressive test which is commonly used for in vivo test to evaluate activity of anti-malaria compound was used. In this experiment, rodent malaria protozoa (Plasmodium berghei NK 65 strain) were used. The infected blood was collected from 5-weeks age (SPF) ICR strain male mouse which were infected intraperitoneally and successively cultured. From the caudal vein of the infected mouse, blood was collected to calculate infection rate. After confirming that infection rate was adequately elevated (10% to 20% infection), the malaria infected blood was collected from the heart of the mouse. The infection rate and count of the red blood cells (cells/mL) were calculated. The infected red blood cell was diluted with PBS buffer to achieve […] protozoa per 0.2 mL dose. The infected cells were injected to the caudal vein of uninfected mouse (ICR strain, male, 5-weeks age) to cause infection. Five mice were made into one group, and the test compound was administered in predefined concentration. From 2 hours after infection, the compound was administered every 24 hours for straight 4 days.
The compound of the invention to be used in this test was dissolved in saline (Otsuka Pharmaceutical Co., Ltd.) to obtain test solution of predefined concentration. When the compound was not dissolved in saline, it was dissolved in SSV (saline containing 0.5% sodium=carboxymethyl cellulose, 0.5% benzyl alcohol, 0.4% Tween 80) to prepare test solution. For the control group (non-treatment group), only saline (Otsuka) was administered. Positive controls S-1 to S-5 were dissolved in saline (Otsuka) or SSV in predetermined concentration to prepare test solution. When the compound was not dissolved in saline, it was dissolved in SSV. After measuring weight of each mouse, the dose for each mouse was calculated to achieve 5.0 to 40 mg concentration for weight1 kg.
Five mice were made into one group, and the test compound was administered intraperitoneally at predefined concentration. From 2 hours after infection, the compound was administered every 24 hours for straight 4 days. Subsequent to the 24 hours after last treatment, blood was collected from the tail of the mouse to prepare thin layer smear in order to count malaria protozoa infection in the treatment group and the control group under microscope. The mice showing maximum value and minimum value were excluded from the average calculation (average was calculated for three mice), to determine malaria protozoa infection rate (Parasitemia).
Using malaria protozoa infection rate thus calculated, recovery rate obtained from the test compound (suppression) was determined.
Recovery rate: suppression(%)=(b−a)/b×100 a: Protozoa infection rate in the treatment group b: Protozoa infection rate in the control group Mean survival days: MSD(day)=c−d c: Average days from the initial treatment (date of malaria infection) to the date of death for the treatment group (5 mice) d: Average days from the date of malaria infection to the date of death for the non-treatment (control) group (5 mice) […]
Tables 5 to 7 illustrate the recovery rate (%) and survival days (day) of malaria infected mice treated with intraperitoneal injection of the test compound and the control compound at predefined concentration. The meaning of symbols in the table is as follows.

[2] = system: Rat-derived L6 cells (rat skeletal myoblast cell); test: Rat L6 cell proliferation inhibition test; format: cell-based; conditions: Table 1, 72 hours, Alamar Blue
Method: Rat-derived L6 cells (rat skeletal myoblast cell) were used for this test. […] The sample was cultured under CO2 concentration 5% and temperature 37° C. Either the composition of the invention or control was dissolved into DMSO, to prepare test solutions having predefined concentration.
The samples were precultured until logarithmic growth phase was reached. Then the culture was transferred to each well in a 96-well culture plate, and either test solution containing test compound at predefined concentration or DSMO without compound was added. The test solution was duplicated.
The plate was cultured in an incubator for 72 hours, to examine proliferation inhibition activity. The activity was examined as follows. Alamar Blue water solution 10 μL was added to each well, and culture was continued for 2 hours. Next, the culture plate was mounted on a fluorescence microplate reader (Spectramax Gemeni XS; Molecular Devices Corporation, U.S.), and irradiated with excitation wavelength 536 nm to determine fluorescence at 588 nm. The survival rate of L6 cells in the test solution sample and control sample was calculated.
Proliferation inhibition rate(%)={(C−A)/(B−A)}×100
A: Initial cell count B: Cell count in control after 3 days C: Cell count in test solution after 3 days

[3] = system: Plasmodium Falciparum k1 strain; test: Chloroquine-resistant tropical malaria protozoa proliferation inhibition screening test; format: cell-based; conditions: chloroquine-resistant K1 strain; 3H-hypoxanthine uptake
Method: In this experiment, Plasmodium Falciparum k1 strain protozoa were used. The medium used in the experiment was filter-sterilized RPMI-1640 medium. To the medium human serum was added to achieve 5% concentration. The protozoa was cultured under condition of O2 concentration 3%, CO2 concentration 4%, N2 concentration 93%, and temperature 37° C.
The cultured malaria infected red blood cells were collected by centrifugation, diluted with non-infected red blood cells, to achieve initial infection rate 0.15%. The hematocrit was 2.5%.
To each well in a 96-well culture plate, 200 μL malaria infected culture was added, and either test solution containing test compound at predefined concentration or DMSO having no test compound was added. Each test solution was prepared in duplicate. After 48 hours culture under 37° C., hypoxanthine labeled with radioactive tritium (^3H) of 0.5 μCi was added to each well. After culturing under same condition for 24 hours, the product was collected on a glass fiber filter and washed. The intensity of radiation was measured by Beta plate liquid scintillation counter (Wallac Inc.), to determine malaria protozoa infection rate in test compound samples and control samples.
Using the malaria protozoa infection rate, the proliferation inhibition rate was calculated according to the following equation to determine 50% proliferation inhibition concentration (EC50).
Proliferation inhibition rate(%)={1−(b−a)/(c−a)}×100
a: initial infection rate b: infection rate of test compound solution c: infection rate of the control

[4] = Plasmodium berghei, ip, 96 h, read-out: Recovery Rate (suppression)
[5] = dose 25 mg/kg/d intraperitoneally
[6] = dose 5.0 mg/kg/d intraperitoneally

## CCN1C(=O)/C(=C2\C=CC=CN2C)S/C1=N\c1cc[n+](C)c2cc(Cl)ccc12 [Compound A-15]
[1]; [4]
  inhibition in vivo at 25 mg/kg/day: 60.3%
[1]; [5]
  Survival days (mean survival days, treatment group minus control group): 2.0 days

## C=CCN1C(=O)/C(=c2/s/c(=C3/C=CC=CN3C)c(=O)n2CC)S/C1=N\c1scc[n+]1C [Compound B-40]
[2]
  EC50 cytotoxicity L6: 27.38 µg/mL

## CCN1C(=O)/C(=c2/s/c(=C3/SCCN3C)c(=O)n2CC)S/C1=N\c1sc2ccccc2[n+]1C [Compound B-31]
[1]; [5]
  Survival days (mean survival days, treatment group minus control group): 1.7 days
  Recovery Rate (suppression): 90.6%

## CCN1C(=O)/C(=C/C=C2\Sc3ccccc3N2C)S/C1=N\c1sc2cc(Cl)ccc2[n+]1C [Compound C-2]
[3]
  EC50 P. falciparum K1: 0.02495 µg/mL
[2]
  EC50 cytotoxicity L6: 11.33 µg/mL
[1]; [6]
  Recovery Rate (suppression): 32.1%

## C=CCn1c(=O)/c(=C2\C=CC=CN2C)s/c1=c1\s/c(=C\c2cccc[n+]2C)n(CC)c1=O [Compound S-6, reference compound]
[1]; [4]
  inhibition in vivo at 50 mg/kg/day: 25.9%
[1]; dose 50 mg/kg/d intraperitoneally
  Survival days (mean survival days, treatment group minus control group): 0 days

## CCn1c(=O)/c(=C2\C=CC=CN2C)s/c1=C1\S/C(=N\c2sc3cc(Cl)ccc3[n+]2C)N(c2ccccc2)C1=O [Compound B-11]
[1]; [4]
  inhibition in vivo at 25 mg/kg/day: 82.7%

## CCN1C(=O)/C(=C/C=C2\Sc3ccccc3N2C)S/C1=N\c1scc(-c2ccc(Cl)cc2)[n+]1C [Compound C-4]
[1]; [4]
  inhibition in vivo at 5 mg/kg/day: 37.9%

## CCn1c(=O)/c(=C2\SCCN2C)s/c1=C1\S/C(=N\c2sc3cc(Cl)ccc3[n+]2C)N(c2ccc(OC)cc2)C1=O [Compound B-26]
[1]; [5]
  Survival days (mean survival days, treatment group minus control group): 2.0 days
  Recovery Rate (suppression): 64.3%

## CCn1c(=O)/c(=C2\C=CC=CN2C)s/c1=C1\S/C(=N\c2sc3cc(Cl)ccc3[n+]2C)N(c2ccc(OC)cc2)C1=O [Compound B-17]
[1]; [4]
  inhibition in vivo at 25 mg/kg/day: 73.1%
[1]; [5]
  Survival days (mean survival days, treatment group minus control group): 6.8 days

## CCn1c(=O)/c(=C2\Sc3ccccc3N2C)s/c1=C\c1cccc[n+]1CC [Compound S-1, reference compound]
[1]; [4]
  inhibition in vivo at 10 mg/kg/day: 30%
[1]; [5]
  Toxicity noted: toxic

## CCn1c(=O)/c(=c2/s/c(=C3/Sc4ccccc4N3C)c(=O)n2CC)s/c1=C\c1sc2ccccc2[n+]1C [Compound S-5, reference compound]
[1]; [4]
  inhibition in vivo at 5 mg/kg/day: 41%

## C=C[C@H]1C[N@@]2CC[C@H]1C[C@H]2[C@H](O)c1ccnc2ccc(OC)cc12 [Quinine, reference compound]
[1]; [4]
  inhibition in vivo at 10 mg/kg/day: 18.6%
[1]; dose 10 mg/kg/d intraperitoneally
  Survival days (mean survival days, treatment group minus control group): 1.0 days

## CCn1c(=O)/c(=C2\C=CC=CN2C)s/c1=C1\S/C(=N\c2sc3cc(Cl)ccc3[n+]2C)N(Cc2ccccc2)C1=O [Compound B-16]
[1]; [4]
  inhibition in vivo at 20 mg/kg/day: 97.4%

## CCn1c(=O)/c(=C2\SCCN2C)s/c1=C1\S/C(=N\c2scc[n+]2C)N(Cc2ccccc2)C1=O [Compound B-23]
[1]; [5]
  Survival days (mean survival days, treatment group minus control group): 7.0 days
  Recovery Rate (suppression): 85.1%

## CCN1C(=O)/C(=C2\C=Cc3ccccc3N2C)S/C1=N\c1cccc[n+]1C [Compound A-14]
[1]; [4]
  inhibition in vivo at 10 mg/kg/day: 64.5%

## CCN1C(=O)/C(=c2/s/c(=C3/C=CC=CN3C)c(=O)n2CC)S/C1=N\c1scc[n+]1C [Compound B-19]
[3]
  EC50 P. falciparum K1: 0.0166 µg/mL
[2]
  EC50 cytotoxicity L6: 27.92 µg/mL

## CCn1c(=O)/c(=c2\nc3c(o2)=CC=CN3C)s/c1=C1\S/C(=N\c2sc3cc(Cl)ccc3[n+]2C)N(Cc2ccccc2)C1=O [Compound B-18]
[1]; [5]
  Survival days (mean survival days, treatment group minus control group): 7.0 days
  Recovery Rate (suppression): 22.39%

## C=CCN1C(=O)/C(=c2/s/c(=C3/C=CC=CN3C)c(=O)n2CC)S/C1=N\c1sc2cc(Cl)ccc2[n+]1C [Compound B-38]
[1]; [5]
  Recovery Rate (suppression): 95.7%

## CCN1C(=O)/C(=C/C=C2\Sc3ccccc3N2C)S/C1=N\c1c(O)ccc[n+]1C [Compound C-3]
[1]; [6]
  Recovery Rate (suppression): 43.9%

## CCn1c(=O)/c(=C2\Sc3ccc4ccccc4c3N2C)s/c1=C\c1cccc[n+]1C [Compound S-4, reference compound]
[1]
  Acute toxicity in treated mice: caused death
[1]; [4]
  inhibition in vivo at 5 mg/kg/day: 17.1%
  inhibition in vivo at 10 mg/kg/day: 36%
[1]; [5]
  Toxicity noted: toxic

## C=CCN1C(=O)/C(=c2/s/c(=C3/SCCN3C)c(=O)n2CC)S/C1=N\c1scc[n+]1C [Compound B-41]
[1]; [5]
  Survival days (mean survival days, treatment group minus control group): 1.3 days
  Recovery Rate (suppression): 58.5%

## CCn1c(=O)/c(=C2\C=CC=CN2C)s/c1=C1\S/C(=N\c2scc[n+]2C)N(Cc2ccccc2)C1=O [Compound B-21]
[1]; [5]
  Survival days (mean survival days, treatment group minus control group): 7.0 days
  Recovery Rate (suppression): 80.4%

## CCN1C(=O)/C(=c2/s/c(=C3/SCCN3C)c(=O)n2CC)S/C1=N\c1scc[n+]1C [Compound B-27]
[1]; [5]
  Survival days (mean survival days, treatment group minus control group): 2.0 days
  Recovery Rate (suppression): 55.4%

## CCN1C(=O)/C(=c2/s/c(=c3/nc4c(o3)=CC=CN4C)c(=O)n2CC)S/C1=N\c1scc[n+]1C [Compound B-20]
[3]
  EC50 P. falciparum K1: 0.017 µg/mL
[2]
  EC50 cytotoxicity L6: 69.34 µg/mL
[1]; [5]
  Survival days (mean survival days, treatment group minus control group): 6.3 days
  Recovery Rate (suppression): 56.1%

## C=CCn1c(=O)/c(=C2\Sc3ccccc3N2C)s/c1=C\c1cccc[n+]1C [Compound S-2, reference compound]
[1]
  Acute toxicity in treated mice: caused death
[1]; [4]
  inhibition in vivo at 10 mg/kg/day: 27%

## CCn1c(=O)/c(=C2\C=CC=CN2C)s/c1=C1\S/C(=N\c2scc(-c3ccc(Cl)cc3)[n+]2C)N(c2ccccc2)C1=O [Compound B-13]
[1]; [4]
  inhibition in vivo at 25 mg/kg/day: 95.6%
